According to patent publication US20120022261A1, “Colorant Compositions Containing an Oxonol Dye” (priority 2005, published 2012):

Key:
[1] = Solubility in organic solvents (EtOH, MEK); assay type: physicochemical; settings: for Solubility (g/l) EtOH: solvent EtOH; for Solubility (g/l) MEK: solvent MEK (methylethyl ketone)
[2] = 50° C. test (storage at 50° C. over 18 hours in a hot-air cabinet); assay type: physicochemical; design: key: A positive test result indicates that the product still exists in a solid and powdery state after the heat treatment; If the product undergoes a sintering process and/or starts to melt at this temperature, the test result is classified as negative; settings: solid product stored at 50° C. for 18 hours in a hot-air cabinet
Description: The 50° C. test involves storing the product to be tested at 50° C. over a period of 18 hours in a hot-air cabinet. […] If the product undergoes a sintering process and/or starts to melt at this temperature, the test result is classified as negative.

| Structure (SMILES) | Solubility (g/l) EtOH [1] [g/L] | Solubility (g/l) MEK [1] [g/L] | 50° C. Test [2] |
| --- | --- | --- | --- |
| CC1=C(C#N)C(=O)N(CC(C)C)C(=O)C1=CC=Cc1c(C)c(C#N)c(=O)n(CC(C)C)c1[O-].CCCC[N+](CCCC)(CCCC)CCCC | 4 | 56.2 | positive |
| CCCC[N+](CCCC)(CCCC)CCCC.CCN1C(=O)C(=CC=Cc2c(C)c(C#N)c(=O)n(CC)c2[O-])C(C)=C(C#N)C1=O [ethyl, ethyl, tetrabutyl-ammonium] | 5.6 | 63.2 | positive |
| CCCC[N+](CCCC)(CCCC)CCCC.CCCCn1c([O-])c(C=CC=C2C(=O)N(CC)C(=O)C(C#N)=C2C)c(C)c(C#N)c1=O [ethyl, n-butyl, tetrabutyl-ammonium] | 14.3 | 41.4 | positive |
| CC1=C(C#N)C(=O)N(C(C)C)C(=O)C1=CC=Cc1c(C)c(C#N)c(=O)n(C(C)C)c1[O-].CCCC[N+](CCCC)(CCCC)CCCC [i-propyl, i-propyl, tetrabutyl-ammonium] |  |  | positive |
| CCCCN1C(=O)C(=CC=Cc2c(C)c(C#N)c(=O)n(CCCC)c2[O-])C(C)=C(C#N)C1=O.CCCC[N+](CCCC)(CCCC)CCCC [n-butyl, n-butyl, tetrabutyl-ammonium] | 35.5 | 98 | positive |
| CCCCCN1C(=O)C(=CC=Cc2c(C)c(C#N)c(=O)n(CCCCC)c2[O-])C(C)=C(C#N)C1=O.CCCC[N+](CCCC)(CCCC)CCCC [n-pentyl, n-pentyl, tetrabutyl-ammonium] | 50 | 380 | positive |
| CCCC[N+](CCCC)(CCCC)CCCC.CCCN1C(=O)C(=CC=Cc2c(C)c(C#N)c(=O)n(CCC)c2[O-])C(C)=C(C#N)C1=O [n-propyl, n-propyl, tetrabutyl-ammonium] | 14 | 69 | positive |
| CCCC[N+](CCCC)(CCCC)CCCC.COCCN1C(=O)C(=CC=Cc2c(C)c(C#N)c(=O)n(CCOC)c2[O-])C(C)=C(C#N)C1=O [reference compound] |  |  | negative |
| CCCC[N+](CCCC)(CCCC)CCCC.CCn1c([O-])c(C=CC=C2C(=O)N(CCCOC(C)C)C(=O)C(C#N)=C2C)c(C)c(C#N)c1=O [reference compound] | 146 | 231 | negative |
| CCCCC[N+](CCCCC)(CCCCC)CCCCC.CCn1c([O-])c(C=CC=C2C(=O)N(CCCOC(C)C)C(=O)C(C#N)=C2C)c(C)c(C#N)c1=O [reference compound] | 45 | 32 | negative |
| CC1=C(C#N)C(=O)N(CCCOC(C)C)C(=O)C1=CC=Cc1c(C)c(C#N)c(=O)n(C)c1[O-].CCCC[N+](CCCC)(CCCC)CCCC [reference compound] | 21.3 | 28.5 | negative |
| CCCC[N+](CCCC)(CCCC)CCCC.CCCCn1c([O-])c(C=CC=C2C(=O)N(CCCOC(C)C)C(=O)C(C#N)=C2C)c(C)c(C#N)c1=O [reference compound] | 197 | 339 | negative |
